Measurements reported in the NIST ThermoML archive (doi:10.1016/j.tca.2004.09.012).
Numbers after ± are expanded uncertainties.

Columns and labels:
[1] = 298.15 K; 101.33 kPa; Liquid
[2] = excess molar enthalpy (molar enthalpy of mixing); xn = mol fraction of the nth substance listed; conditions: 298.15 K, 101.3 kPa, Liquid

## CC(=O)CC(C)C [4-methylpentan-2-one]
[1]
  mass density: 796.19 ± 0.63 kg/m3

## CC(=O)CC(C)C [4-methylpentan-2-one] + CCCCCCO
[2]; x1 = 0.0995
  excess molar enthalpy: 0.561 ± 0.013 kJ/mol
[2]; x1 = 0.2004
  excess molar enthalpy: 0.977 ± 0.022 kJ/mol
[2]; x1 = 0.3015
  excess molar enthalpy: 1.26 ± 0.027 kJ/mol
[2]; x1 = 0.4029
  excess molar enthalpy: 1.44 ± 0.031 kJ/mol
[2]; x1 = 0.5082
  excess molar enthalpy: 1.51 ± 0.032 kJ/mol
[2]; x1 = 0.5096
  excess molar enthalpy: 1.51 ± 0.032 kJ/mol
[2]; x1 = 0.6091
  excess molar enthalpy: 1.46 ± 0.031 kJ/mol
[2]; x1 = 0.7086
  excess molar enthalpy: 1.31 ± 0.028 kJ/mol
[2]; x1 = 0.8049
  excess molar enthalpy: 1.04 ± 0.023 kJ/mol
[2]; x1 = 0.903
  excess molar enthalpy: 0.603 ± 0.014 kJ/mol

## CC(=O)CC(C)C [4-methylpentan-2-one] + CCCCCO
[2]; x1 = 0.1008
  excess molar enthalpy: 0.543 ± 0.013 kJ/mol
[2]; x1 = 0.2043
  excess molar enthalpy: 0.938 ± 0.021 kJ/mol
[2]; x1 = 0.304
  excess molar enthalpy: 1.2 ± 0.026 kJ/mol
[2]; x1 = 0.403
  excess molar enthalpy: 1.35 ± 0.029 kJ/mol
[2]; x1 = 0.4035
  excess molar enthalpy: 1.36 ± 0.029 kJ/mol
[2]; x1 = 0.503
  excess molar enthalpy: 1.43 ± 0.03 kJ/mol
[2]; x1 = 0.5035
  excess molar enthalpy: 1.41 ± 0.03 kJ/mol
[2]; x1 = 0.6017
  excess molar enthalpy: 1.4 ± 0.03 kJ/mol
[2]; x1 = 0.7007
  excess molar enthalpy: 1.27 ± 0.027 kJ/mol
[2]; x1 = 0.7996
  excess molar enthalpy: 1.01 ± 0.022 kJ/mol
[2]; x1 = 0.9002
  excess molar enthalpy: 0.603 ± 0.014 kJ/mol

## CC(=O)CC(C)C [4-methylpentan-2-one] + CCCCO
[2]; x1 = 0.1005
  excess molar enthalpy: 0.517 ± 0.012 kJ/mol
[2]; x1 = 0.1998
  excess molar enthalpy: 0.885 ± 0.02 kJ/mol
[2]; x1 = 0.2999
  excess molar enthalpy: 1.14 ± 0.025 kJ/mol
[2]; x1 = 0.3967
  excess molar enthalpy: 1.31 ± 0.028 kJ/mol
[2]; x1 = 0.3996
  excess molar enthalpy: 1.29 ± 0.028 kJ/mol
[2]; x1 = 0.4967
  excess molar enthalpy: 1.38 ± 0.03 kJ/mol
[2]; x1 = 0.5978
  excess molar enthalpy: 1.37 ± 0.029 kJ/mol
[2]; x1 = 0.6981
  excess molar enthalpy: 1.24 ± 0.027 kJ/mol
[2]; x1 = 0.7978
  excess molar enthalpy: 0.996 ± 0.022 kJ/mol
[2]; x1 = 0.9006
  excess molar enthalpy: 0.585 ± 0.014 kJ/mol

## CC(=O)CC(C)C [4-methylpentan-2-one] + CCCO
[2]; x1 = 0.0797
  excess molar enthalpy: 0.391 ± 0.0099 kJ/mol
[2]; x1 = 0.1587
  excess molar enthalpy: 0.687 ± 0.016 kJ/mol
[2]; x1 = 0.2384
  excess molar enthalpy: 0.92 ± 0.02 kJ/mol
[2]; x1 = 0.3192
  excess molar enthalpy: 1.09 ± 0.024 kJ/mol
[2]; x1 = 0.3901
  excess molar enthalpy: 1.21 ± 0.026 kJ/mol
[2]; x1 = 0.4948
  excess molar enthalpy: 1.3 ± 0.028 kJ/mol
[2]; x1 = 0.5955
  excess molar enthalpy: 1.29 ± 0.028 kJ/mol
[2]; x1 = 0.6981
  excess molar enthalpy: 1.18 ± 0.025 kJ/mol
[2]; x1 = 0.8004
  excess molar enthalpy: 0.942 ± 0.021 kJ/mol
[2]; x1 = 0.9012
  excess molar enthalpy: 0.563 ± 0.013 kJ/mol

## CC(=O)CC(C)C [4-methylpentan-2-one] + CCO
[2]; x1 = 0.0772
  excess molar enthalpy: 0.271 ± 0.0075 kJ/mol
[2]; x1 = 0.1571
  excess molar enthalpy: 0.512 ± 0.012 kJ/mol
[2]; x1 = 0.2369
  excess molar enthalpy: 0.708 ± 0.016 kJ/mol
[2]; x1 = 0.2947
  excess molar enthalpy: 0.869 ± 0.019 kJ/mol
[2]; x1 = 0.3977
  excess molar enthalpy: 1.05 ± 0.023 kJ/mol
[2]; x1 = 0.5
  excess molar enthalpy: 1.17 ± 0.025 kJ/mol
[2]; x1 = 0.5995
  excess molar enthalpy: 1.2 ± 0.026 kJ/mol
[2]; x1 = 0.6981
  excess molar enthalpy: 1.14 ± 0.025 kJ/mol
[2]; x1 = 0.7954
  excess molar enthalpy: 0.97 ± 0.021 kJ/mol
[2]; x1 = 0.897
  excess molar enthalpy: 0.622 ± 0.015 kJ/mol

## CC(=O)CC(C)C [4-methylpentan-2-one] + CO
[2]; x1 = 0.0523
  excess molar enthalpy: 0.142 ± 0.0097 kJ/mol
[2]; x1 = 0.0998
  excess molar enthalpy: 0.253 ± 0.014 kJ/mol
[2]; x1 = 0.1502
  excess molar enthalpy: 0.351 ± 0.018 kJ/mol
[2]; x1 = 0.2002
  excess molar enthalpy: 0.44 ± 0.022 kJ/mol
[2]; x1 = 0.2495
  excess molar enthalpy: 0.528 ± 0.025 kJ/mol
[2]; x1 = 0.2954
  excess molar enthalpy: 0.666 ± 0.031 kJ/mol
[2]; x1 = 0.4019
  excess molar enthalpy: 0.801 ± 0.036 kJ/mol
[2]; x1 = 0.5037
  excess molar enthalpy: 0.875 ± 0.039 kJ/mol
[2]; x1 = 0.6059
  excess molar enthalpy: 0.883 ± 0.039 kJ/mol
[2]; x1 = 0.707
  excess molar enthalpy: 0.816 ± 0.037 kJ/mol
[2]; x1 = 0.8119
  excess molar enthalpy: 0.65 ± 0.03 kJ/mol
[2]; x1 = 0.908
  excess molar enthalpy: 0.384 ± 0.019 kJ/mol

## CCCCO [butan-1-ol]
[1]
  mass density: 805.75 ± 0.69 kg/m3

## CCO [ethanol]
[1]
  mass density: 785.15 ± 0.58 kg/m3

## CCCCCCO [hexan-1-ol]
[1]
  mass density: 815.2 ± 0.99 kg/m3

## CO [methanol]
[1]
  mass density: 786.5 ± 0.61 kg/m3

## CCCCCO [pentan-1-ol]
[1]
  mass density: 810.88 ± 0.99 kg/m3

## CCCO [propan-1-ol]
[1]
  mass density: 799.51 ± 0.57 kg/m3
